Results as given in patent US9567318B2, “Substituted pyrimidine compounds and uses thereof” (Memorial Sloan-Kettering Cancer Center, priority 2009, dated 2017).

How the values were obtained:
[1] = test system: MDA-MB-468 xenografted tumors; test: Tumor xenografts; type: in vivo; details: i.t., alternate days, mice
Protocol: FIG. 12. YK5 affects the major hallmarks of cancer: inhibits proliferation and invasiveness and arrests cancer cells in the cell cycle. (a) The indicated cancer cells were incubated with increasing concentrations of inhibitors and growth over 72 h was assessed. Y-axis values below 0% represent cell death of the starting population. Drugs were assayed in triplicate. (b) Mice (n=5) bearing MDA-MB-468 subcutaneously (s.c.) xenografted tumors that reached a volume of approximately 100-200 mm^3, were administered i.t. YK5 or vehicle as described in Methods. Tumor volume (mm^3) was estimated from caliper measurements. (c) Cells were treated for 24 h with indicated concentrations of YK5. DNA content was analyzed by propidium iodide staining and flow cytometry (left), whereas proteins by western blotting (right). (d) Hsp70 client proteins isolated by YK55-beads from SKBr3 and MDA-MB-468 extracts (500 μg) were analyzed by western blotting. […] (e) MDA-MB-231 breast cancer cells were treated for 24 h with YK5 (1 μM) and protein extracts were subjected to immunoblotting (upper) or pre-treated for 24 h with vehicle or YK5, and viable cells able to migrate through Matrigel over a 20 h period were quantified and data graphed (lower). […]
Tumor Xenografts. […] Tumor volume was determined by measurement with Vernier calipers, and tumor volume was calculated as the product of its length×width^2×0.4. […]

[2] = test system: primary human AML cells (blasts, leukemia stem cells); test: Treatment of primary AML cells; type: cell-based; details: 24 h
Protocol: FIG. 20. Treatment of primary AML cells with YK5. YK5 kills both blast and cancer stem cells but not normal cells. Cells were treated with increasing concentrations of YK5 for 24 h. (a-b) % viability relative to untreated control is shown. Open bars: “Other” represent normal cells in the same patient (non-blast), Gray bars: Blasts (CD45 dim). red bars: leukemia stem cells (LSCs) (CD34+CD38-CD123+). (c) CFU (Colony forming units) decrease after treatment of primary AML cells with YK5. **p<0.001.
Strikingly, a high sensitivity of phenotypically described leukemia stem cells and of total leukemic blasts was observed (FIG. 20b; red vs. gray bars). […] Thus, a compound with cancer stem cell toxicity, such as YKs, is of significant value to improving cancer therapy.
Primary Cell Isolation and Culture. Primary human AML cells were obtained with informed consent. All manipulation and analysis of specimens was approved by the Weill Cornell Medical College Institutional Review Board. Mononuclear cells were isolated using Ficoll-Plaque (Pharmacia Biotech, Piscataway, N.Y.) density gradient separation. In some cases, cells were cryopreserved in freezing medium consisting of Iscove's modified Dulbecco medium (IMDM), 40% fetal bovine serum (FBS), and 10% dimethylsulfoxide (DMSO) or in CryoStor™ CS-10 (Biolife).

C=CC(=O)Nc1cc(N)nc(Sc2c(OC)nc(N3CCN(C)CC3)nc2OC)n1 [YK5, N-(6-amino-2-(4,6-dimethoxy-2-(4-methylpiperazin-1-yl)pyrimidin-5-ylthio)pyrimidin-4-yl)acrylamide]
growth of xenografted tumors [1]: inhibited the growth of MDA-MB-468 xenografted tumors | cell death in primary AML specimens [2]: induced potent cell death in blast, stem and progenitor populations
